This note sets out measurements from US20120184556A1, “SUBSTITUTED ENZOIMIDAZOLESULFONAMIDES AND SUBSTITUTED INDOLESULFONAMIDES AS MGLUR4 POTENTIATORS” (priority 2009, published 2012).

In the assay the target is T1, human mGluR4 (Homo sapiens, UniProt Q14833).
T1 construct: expressed in transfected cells; host or cells: Chinese Hamster Ovary (CHO) cells
The assay can be described thus: human mGluR4 potentiation assay, CHO cells, Fluo-4 calcium fluorescence, agonist EC20. As to conditions: for Emax: CHO, maximum extent of potentiation, human mGluR4, read-out: GluMax; for EC50: potentiation of human mGluR4 response to EC20 agonist, read-out: hEC50. The format is cell-based. On the procedure: The disclosed compounds and compositions can be evaluated for their ability to act as a potentiator of metabotropic glutamate receptor activity, in particular mGluR4 activity, by any suitable known methodology known in the art. For example, Chinese Hamster Ovary (CHO) cells transfected with human mGluR4 or HEK cells co-transfected with rat mGluR4 and the G-protein regulated Inwardly Rectifying Potassium channel (GIRK) were plated in clear bottom assay plates for assay in a Hamamatsu FDSS Fluorometric Plate Reader. The cells were loaded with either the Ca2+-sensitive fluorescent dye Fluo-4 or the thallium responsive dye BTC, AM and the plates were washed and placed into a suitable kinetic plate reader. For human mGluR4 assays, a fluorescence baseline was established for 3-5 seconds, the disclosed compounds were then added to the cells, and the response in cells was measured. Approximately two and a half minutes later, a concentration of mGluR4 agonist (e.g. glutamate or L-AP4) eliciting approximately 20% (EC20) of the maximal agonist response was added to the cells, and the response was measured. Two minutes later, a concentration of mGluR4 agonist (e.g. glutamate or L-AP4) eliciting 80% (EC80) of the maximal agonist response was added to the cells, and the response was measured. For rat mGluR4/GIRK experiments, a baseline was established for approximately five seconds, disclosed compounds were added, and either an EC20 or EC80 concentration of agonist was added approximately two and one half minutes later. Potentiation of the agonist response of mGluR4 by the disclosed compounds was observed as an increase in response to the EC20 concentration of agonist in the presence of compound compared to the response to agonist in the absence of compound. Similarly, antagonism of the agonist response of mGluR4 by the disclosed compounds was observed as a decrease in response to the EC80 concentration of agonist in the presence of compound compared to the response to agonist in the absence of compound.
The above described assay operated in two modes. In the first mode, a range of concentrations of the disclosed compounds are added to cells, followed by a single fixed concentration of agonist. If the compound acts as a potentiatior, an EC50 value for potentiation and a maximum extent of potentiation by the compound at this concentration of agonist is determined by non-linear curve fitting. If the compound acts as a noncompetitive antagonist, an IC50 value is determined by non-linear curve fitting. In the second mode, several fixed concentrations of the disclosed compounds are added to various wells on a plate, followed by a range in concentrations of agonist for each concentration of disclosed compound. The EC50 values for the agonist at each concentration of compound are determined by non-linear curve fitting. A decrease in the EC50 value of the agonist with increasing concentrations of the sample compound (a leftward shift of the agonist concentration-response curve) is an indication of the degree of mGluR4 potentiation at a given concentration of the sample compound. A decrease in the maximal response of the agonist with increasing concentrations of the sample compounds, with or without a rightward shift in agonist potency, is an indication of the degree of noncompetitive antagonism at mGluR4. The second mode also indicates whether the sample compounds also affect the maximum response to mGluR4 to agonists.

Structures are written as SMILES. Where only a bound is given, the exact number is not on record here.

T1 sequence (Q14833 33-912): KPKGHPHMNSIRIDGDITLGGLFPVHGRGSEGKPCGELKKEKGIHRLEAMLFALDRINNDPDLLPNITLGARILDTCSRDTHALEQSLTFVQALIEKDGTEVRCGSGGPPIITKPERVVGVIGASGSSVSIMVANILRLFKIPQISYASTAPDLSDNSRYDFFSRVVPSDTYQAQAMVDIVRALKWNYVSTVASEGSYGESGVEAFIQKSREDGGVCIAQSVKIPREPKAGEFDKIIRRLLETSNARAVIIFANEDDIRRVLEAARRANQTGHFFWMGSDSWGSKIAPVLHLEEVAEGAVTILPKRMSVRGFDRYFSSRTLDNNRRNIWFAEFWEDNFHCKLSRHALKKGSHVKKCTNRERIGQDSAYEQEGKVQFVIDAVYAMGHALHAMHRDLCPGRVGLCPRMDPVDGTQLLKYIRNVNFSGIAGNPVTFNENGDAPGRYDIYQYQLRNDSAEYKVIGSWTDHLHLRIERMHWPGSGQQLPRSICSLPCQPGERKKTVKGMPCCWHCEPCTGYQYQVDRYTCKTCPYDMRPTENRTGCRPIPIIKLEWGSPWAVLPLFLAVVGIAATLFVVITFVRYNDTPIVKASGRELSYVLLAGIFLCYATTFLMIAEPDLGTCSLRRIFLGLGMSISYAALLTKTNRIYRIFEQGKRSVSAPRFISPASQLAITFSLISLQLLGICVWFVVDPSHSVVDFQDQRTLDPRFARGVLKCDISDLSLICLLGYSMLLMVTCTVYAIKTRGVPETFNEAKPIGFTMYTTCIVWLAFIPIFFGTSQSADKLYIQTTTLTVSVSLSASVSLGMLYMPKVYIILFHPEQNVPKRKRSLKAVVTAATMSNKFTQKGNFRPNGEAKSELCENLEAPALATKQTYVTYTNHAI

Regarding `Cc1ccc(-c2nc3cc(S(=O)(=O)Nc4ccccc4Cl)ccc3[nH]2)o1` [Example 29, N-(2-chlorophenyl)-2-(5-methylfuran-2-yl)-1H-benzo[d]imidazole-5-sulfonamide], the Emax came out at 52% and the EC50 was found to be 76 nM.

As to `O=S(=O)(Nc1ccccc1Cl)c1ccc2[nH]c(-c3ccc(Cl)o3)nc2c1` [Example 30, 2-(5-chlorofuran-2-yl)-N-(2-chlorophenyl)-1H-benzo[d]imidazole-5-sulfonamide], the Emax came to 76% and the EC50 stood at 199 nM.

For the compound `O=S(=O)(Nc1ccccc1Cl)c1ccc2[nH]c(-c3ncc(F)cc3F)nc2c1` [Example 31, N-(2-chlorophenyl)-2-(3,5-difluoropyridin-2-yl)-1H-benzo[d]imidazole-5-sulfonamide], the Emax was 123% and the EC50 amounted to 473 nM.

Consider `O=S(=O)(Nc1ccccc1F)c1ccc2[nH]c(-c3ccccn3)nc2c1` [Example 33, N-(2-fluorophenyl)-2-(pyridin-2-yl)-1H-benzo[d]imidazole-5-sulfonamide], for which the Emax came to 246% and the EC50 worked out at 186 nM.

`O=S(=O)(Nc1ccccc1Cl)c1ccc2[nH]c(-c3cc(Br)no3)nc2c1` [Example 34, 2-(3-bromoisoxazol-5-yl)-N-(2-chlorophenyl)-1H-benzo[d]imidazole-5-sulfonamide]: the Emax was determined as 149% and the EC50 amounted to 1100 nM.

`Cc1cc(-c2nc3cc(S(=O)(=O)Nc4ccccc4Cl)ccc3[nH]2)on1` [Example 35, N-(2-chlorophenyl)-2-(3-methylisoxazol-5-yl)-1H-benzo[d]imidazole-5-sulfonamide]: the Emax turned out to be 87% and the EC50 was determined as 1980 nM.

For the compound `O=S(=O)(Nc1ccc(F)cc1F)c1ccc2[nH]c(-c3ccccc3)nc2c1` [Example 36, N-(2,4-difluorophenyl)-2-phenyl-1H-benzo[d]imidazole-5-sulfonamide], the Emax is 73% and the EC50 worked out at 296 nM.

Consider `O=S(=O)(Nc1ccccc1F)c1ccc2[nH]c(-c3cnccn3)nc2c1` [Example 37, N-(2-fluorophenyl)-2-(pyrazin-2-yl)-1H-benzo[d]imidazole-5-sulfonamide], for which the Emax amounted to 118% and the EC50 came out at 5490 nM.

For the compound `O=S(=O)(Nc1ccccc1F)c1ccc2[nH]c(-c3ccsc3)nc2c1` [Example 38, N-(2-fluorophenyl)-2-(thiophen-3-yl)-1H-benzo[d]imidazole-5-sulfonamide], the Emax turned out to be 42% and the EC50 is 369 nM.

`O=S(=O)(Nc1ccccc1F)c1ccc2[nH]c(-c3ccncn3)nc2c1` [Example 39, N-(2-fluorophenyl)-2-(pyrimidin-4-yl)-1H-benzo[d]imidazole-5-sulfonamide]: the Emax worked out at 156% and the EC50 is 4820 nM.

For `O=S(=O)(Nc1ccccc1F)c1ccc2[nH]c(-c3nccs3)nc2c1` [Example 40, N-(2-fluorophenyl)-2-(thiazol-2-yl)-1H-benzo[d]imidazole-5-sulfonamide], the Emax was found to be 222% and the EC50 was found to be 756 nM.

For the compound `Cn1ccnc1-c1nc2cc(S(=O)(=O)Nc3ccccc3Cl)ccc2[nH]1` [Example 41, N-(2-chlorophenyl)-2-(1-methyl-1H-imidazol-2-yl)-1H-benzo[d]imidazole-5-sulfonamide], the Emax turned out to be 83% and the EC50 was 9470 nM.

As to `O=S(=O)(Nc1ccc(F)cc1F)c1ccc2[nH]c(-c3ccsc3)nc2c1` [Example 42, N-(2,4-difluorophenyl)-2-(thiophen-3-yl)-1H-benzo[d]imidazole-5-sulfonamide], the Emax turned out to be 50% and the EC50 stood at 226 nM.

Take `O=S(=O)(Nc1ccccc1Cl)c1ccc2[nH]c(-c3ccno3)nc2c1` [Example 43, N-(2-chlorophenyl)-2-(isoxazol-5-yl)-1H-benzo[d]imidazole-5-sulfonamide]: the Emax was 69% and the EC50 came out at 2830 nM.

Regarding `Cc1nc[nH]c1-c1nc2cc(S(=O)(=O)Nc3ccccc3Cl)ccc2[nH]1` [Example 44, N-(2-chlorophenyl)-2-(4-methyl-1H-imidazol-5-yl)-1H-benzo[d]imidazole-5-sulfonamide], the Emax was 36% and the EC50 came to 13400 nM.

Regarding `CC1CCN(S(=O)(=O)c2ccc3[nH]c(-c4ccccn4)nc3c2)CC1` [Example 45, 5-((4-methylpiperidin-1-yl)sulfonyl)-2-(pyridin-2-yl)-1H-benzo[d]imidazole], the Emax was 104% and the EC50 turned out to be 7450 nM.

On to `O=S(=O)(Nc1ccccc1Cl)c1ccc2[nH]c(C3CCCCO3)nc2c1` (stereo not shown) [Example 46, N-(2-chlorophenyl)-2-(tetrahydro-2H-pyran-2-yl)-1H-benzo[d]imidazole-5-sulfonamide], for which the Emax came out at 112% and the EC50 was 2350 nM.

For the compound `O=S(=O)(Nc1ccc(F)cc1F)c1ccc2[nH]c(-c3nccs3)nc2c1` [Example 47, N-(2,4-difluorophenyl)-2-(thiazol-2-yl)-1H-benzo[d]imidazole-5-sulfonamide], the Emax was 147% and the EC50 was 709 nM.

Regarding `CCc1ccc(NS(=O)(=O)c2ccc3[nH]c(-c4ccsc4)nc3c2)cc1` [Example 48, N-(4-ethylphenyl)-2-(thiophen-3-yl)-1H-benzo[d]imidazole-5-sulfonamide], the Emax came out at 85% and the EC50 was 313 nM.

Regarding `CN(c1ccccc1F)S(=O)(=O)c1ccc2[nH]c(-c3ccccn3)nc2c1` [Example 50, N-(2-fluorophenyl)-N-methyl-2-(pyridin-2-yl)-1H-benzo[d]imidazole-5-sulfonamide], the Emax was determined as 61% and the EC50 was 1110 nM.

Turning to `O=S(=O)(Nc1ccc(F)cc1F)c1ccc2[nH]c(-c3ccccn3)nc2c1` [Example 51, N-(2,4-difluorophenyl)-2-(pyridin-2-yl)-1H-benzo[d]imidazole-5-sulfonamide], the Emax was 252% and the EC50 worked out at 99 nM.

On to `O=S(=O)(Nc1ccc(F)cc1F)c1ccc2[nH]c(-c3cccc(F)n3)nc2c1` [Example 52, N-(2,4-difluorophenyl)-2-(6-fluoropyridin-2-yl)-1H-benzo[d]imidazole-5-sulfonamide], for which the Emax was found to be 226% and the EC50 came to 140 nM.

With `CN1CCCCC1c1nc2cc(S(=O)(=O)Nc3ccccc3Cl)ccc2[nH]1` (stereo not shown) [Example 53, N-(2-chlorophenyl)-2-(1-methylpiperidin-2-yl)-1H-benzo[d]imidazole-5-sulfonamide], the Emax is 59% and the EC50 is greater than 10000 nM.
